Measured values: ChEMBL document CHEMBL3137381, “MMV Box Onchocerca lienalis screening set”

Key:
Format in all cases: functional
Onchocerca lienalis [1] = test: MMV: Percent motility assay at a compound concentration of 7.8e-7 M. Activity score legend: 3: Active, 2: Moderately active; 1: Inactive, 0: Toxic; conditions: at 0.78 µM
Onchocerca lienalis [2] = test: MMV: Percent motility assay at a compound concentration of 1.25e-5 M. Activity score legend: 3: Active, 2: Moderately active; 1: Inactive, 0: Toxic; conditions: at 12.5 µM
Onchocerca lienalis [3] = test: MMV: Percent motility assay at a compound concentration of 1.9e-7 M. Activity score legend: 3: Active, 2: Moderately active; 1: Inactive, 0: Toxic; conditions: at 0.19 µM
Onchocerca lienalis [4] = test: MMV: Percent motility assay at a compound concentration of 3.1e-6 M. Activity score legend: 3: Active, 2: Moderately active; 1: Inactive, 0: Toxic; conditions: at 3.1 µM

Row | SMILES | Motility (Onchocerca lienalis [1]) | Motility (Onchocerca lienalis [2]) | Motility (Onchocerca lienalis [3]) | Motility (Onchocerca lienalis [4])
1 | CN1CCN(c2ccc(Nc3c4ccccc4nc4ccccc34)cc2)CC1 | 100% | 100% | 100% | 100%
2 | CN(C)CCCNc1c2ccccc2nc2ccccc12 | 100% | 100% | 100% | 100%
3 | CCN1CCCC1CNc1[nH]cnc2c3cc(Cl)ccc3nc1-2 (configuration not stated) | 100% | 100% | 100% | 100%
4 | COc1ccc(-c2c(C)nn3c(N)c(C#N)cnc23)cc1OC | 100% | 100% | 100% | 100%
5 | CSC1=NC(=Nc2c(C)cccc2C)C2(CCC(C(C)(C)C)CC2)N1c1ccc(Cl)cc1 (configuration not stated) | 100% | 100% | 100% | 100%
6 | C[n+]1c2ccccc2nc2ccc(NCCO)cc21 | 100% | 100% | 100% | 100%
7 | COc1ccc(-c2cc3c(SCC(=O)Nc4cc(C(F)(F)F)ccc4Cl)nccn3n2)cc1 | 100% | 100% | 100% | 100%
8 | CCN(CC)CCNc1ncnc2c1[nH]c1ccc(Cl)cc12 | 100% | 100% | 100% | 100%
9 | CCOC(=O)c1cnc2ccc(CC)cc2c1O | 100% | 100% | 100% | 100%
10 | CCN(CC)CCNc1ccnc2cc(Cl)ccc12 | 100% | 100% | 100% | 100%
11 | Cc1cc(Nc2ccc3ccccc3c2)n2ncnc2n1 | 100% | 100% | 100% | 100%
12 | COc1ccc(-n2ccnc2SCC(=O)Nc2cc(C)ccc2C)c(OC)c1 | 100% | 100% | 100% | 100%
13 | CCN1CCN(Cc2ccc(NC(=O)c3cc4ccc5cccnc5c4[nH]3)cc2)CC1 | 100% | 100% | 100% | 100%
14 | COc1ccc(-c2nc(NC(=O)CS(=O)(=O)c3ccc(F)cc3)sc2C)cc1 | 100% | 100% | 100% | 100%
15 | O=C(O)C1Cc2c([nH]c3ccccc23)C(c2ccc(Cl)cc2Cl)N1 (configuration not stated) | 100% | 100% | 100% | 100%
16 | COc1cccc(NC(=O)[C@H](C(C)C)n2c(=O)[nH]c3ccccc3c2=O)c1 | 100% | 100% | 100% | 100%
17 | CCC(c1ccccc1)c1nn2c(-c3cccs3)nnc2s1 (configuration not stated) | 100% | 100% | 100% | 100%
18 | CC(C)(C)c1ccc(O)c(CNC2CCCCC2)c1 | 100% | 100% | 100% | 100%
19 | O=[N+]([O-])c1ccc(C=NNc2nc3ccccc3[nH]2)cc1 | 100% | 100% | 100% | 100%
20 | CCOc1cc2c(cc1OCC)C(c1cc(OC)c(O)cc1Cl)NCC2 (configuration not stated) | 100% | 100% | 100% | 100%
21 | CC1CN(C(=O)c2sc3ccccc3c2Cl)CC(C)O1 (configuration not stated) | 100% | 100% | 100% | 100%
22 | CN(C)c1ccc(C=Cc2nc(=O)c3ccccc3o2)cc1 | 100% | 100% | 100% | 100%
23 | COc1ccc(C2=C(c3ccc(OC)cc3)C3(c4ccccc4)C(=O)C2(c2ccccc2)C2C(=O)N(c4ccc(C)cc4)C(=O)C23)cc1 (configuration not stated) | 100% | 100% | 100% | 100%
24 | CCOC(=O)c1c(NC(=O)c2ccccc2)sc2c(O)c(CN(CC)CC)ccc12 | 100% | 100% | 100% | 100%
25 | OC(CNC1CCCCC1)Cn1c2ccccc2c2ccccc21 (configuration not stated) | 100% | 60% | 100% | 100%
26 | COc1cccc(C=Cc2nc(=O)c3ccccc3o2)c1OC | 100% | 100% | 100% | 100%
27 | CCCN(CCC)CC(O)COc1ccccc1C(=O)Nc1ccccc1 (configuration not stated) | 100% | 100% | 100% | 100%

Row | SMILES | Motility (Onchocerca lienalis [1]) | Motility (Onchocerca lienalis [2]) | Motility (Onchocerca lienalis [3]) | Motility (Onchocerca lienalis [4])
28 | COc1ccc(C=C2SC(=N)N(c3ccccc3OC)C2=O)cc1 | 100% | 100% | 100% | 100%
29 | COc1ccc(NC(=O)C2c3ccccc3C(=O)N(CC(C)C)C2c2cccs2)cc1Cl (configuration not stated) | 100% | 100% | 100% | 100%
30 | CCOC(=O)c1c(C)n(-c2ccc(Cl)cc2)c2ccc(OC(=O)C=Cc3ccccc3)cc12 | 100% | 100% | 100% | 100%
31 | COc1ccc2c(c1)OC(O)(C(F)(F)C(F)(F)F)CC2=O (configuration not stated) | 100% | 100% | 100% | 100%
32 | C=CC12CCN(CC1)C(C(O)c1ccnc3ccc(OC)cc13)C2.Cl (configuration not stated) | 100% | 100% | 100% | 100%
33 | Cc1ccc(-c2cc3nc4c(c(O)n3n2)CCCC4)cc1 | 100% | 100% | 100% | 100%
34 | COc1ccccc1CNC(=O)CCn1c(=O)[nH]c2ccccc2c1=O | 100% | 100% | 100% | 100%
35 | c1ccc2cc3c(Nc4ccc(N5CCOCC5)cc4)ccnc3cc2c1 | 100% | 100% | 100% | 100%
36 | Cc1cc(C)c2c(c1)OCN(Cc1ccccc1Cl)C2 | 100% | 100% | 100% | 100%
37 | COc1ccccc1NC1=C(N2CCCCC2)C(=O)c2ccccc2C1=O | 100% | 100% | 100% | 100%
38 | CCOC(=O)c1cn(CC)c2cc(N3CCCCC3)c(F)cc2c1=O | 100% | 100% | 100% | 100%
39 | CCCc1cc(O)c2c3c(c(=O)oc2c1)CN(C)CC3 | 100% | 66.6% | 100% | 100%
40 | Cc1cc(NC(=O)C2c3ccccc3C(=O)N(CC(C)C)C2c2cccs2)no1 (configuration not stated) | 100% | 100% | 100% | 100%
41 | Cl.Oc1ccccc1CNCC12CC3CC(CC(C3)C1)C2 | 100% | 100% | 100% | 100%
42 | CNCCCNc1ccnc2cc(Cl)ccc12 | 100% | 100% | 100% | 100%
43 | CC1CCN(Cc2ccc(NC(=O)c3cc4ccc5cccnc5c4[nH]3)cc2)CC1 | 100% | 100% | 100% | 100%
44 | CSc1ccccc1C(=O)Nc1nc(-c2ccccn2)cs1 | 100% | 33.33% | 100% | 100%
45 | COc1ccc(-c2nc3cc(Cc4ccc5[nH]c(-c6ccc(OC)cc6)nc5c4)ccc3[nH]2)cc1 | 100% | 80% | 100% | 100%
46 | CCOC(=O)c1ccc2nc(-c3ccccc3)cc(O)c2c1 | 100% | 100% | 100% | 100%
47 | Cc1cc(Nc2ccc(Cl)cc2)n2nc(C(F)(F)F)nc2n1 | 100% | 100% | 100% | 100%
48 | COc1ccc(C(C)=O)cc1N1C(=O)C2C(C1=O)C1(c3ccccc3)C(=O)C2(c2ccccc2)C(c2ccc(C)cc2)=C1c1ccc(C)cc1 (configuration not stated) | 100% | 100% | 100% | 100%
49 | CCCCCCOC(=O)C1=C(C)NC(=O)NC1c1ccccc1F (configuration not stated) | 100% | 6% | 100% | 100%
50 | Cc1ccc(N2C3c4ccccc4N(S(=O)(=O)c4ccc(C)cc4)C2c2ccccc2N3S(=O)(=O)c2ccc(C)cc2)cc1 | 100% | 100% | 100% | 100%
51 | Cc1ccc(Nc2nc(NCCO)c3ccccc3n2)cc1C | 100% | 33.33% | 100% | 100%
52 | COc1ccc(NC(=O)C2c3ccccc3C(=O)N(CC(C)C)C2c2cccs2)cc1 (configuration not stated) | 100% | 100% | 100% | 100%
53 | c1ccc(Cn2c(N=Nc3c(Nc4ccccc4)ccc4ccccc34)nc3ccccc32)cc1 | 100% | 100% | 100% | 100%
